Laboratory results reported in patent US10487044B2, “Gamma-aminobutyric acid hemihydrate crystal and preparation method thereof” (priority 2016, dated 2019).
Read-outs that look alike come from different tables or passages of the source.

What was measured:
[1] = prior-art product, exposed to air; cited from earlier work
Bulk density test = assay type: physicochemical
[2] = Particle size distribution by laser particle size analyzer; assay type: physicochemical; settings: hemihydrate
Excerpt: The particle size distribution curves of the products in the embodiments of the present invention were all determined by Masterizer laser particle size analyzer from Malvern Panalytical (the U.K.).

[3] = Moisture absorption and agglomeration; assay type: physicochemical
[4] = Flowability test (angle of repose); assay type: physicochemical
Method: Flowability test: The angle of repose is the maximum angle formed between the free slope of a piled powder and the horizontal plane. It is measured when the particles achieve a static state as they slide on the free slope of the piled powder and experience a balance of gravity and interparticle friction. It is the easiest way to examine the flowability of a powder. The smaller the angle of repose, the smaller the friction and the better the flowability.

| SMILES | moisture absorption and agglomeration [3] | bulk density (in words) (Bulk density test) | flowability (in words) [4] | further results |
| --- | --- | --- | --- | --- |
| NCCCC(=O)O | – | – | – | hygroscopicity [1]: highly hygroscopic |
| NCCCC(=O)O [Embodiment 1, γ-aminobutyric acid hemihydrate] | did not easily absorb moisture and agglomerate | – | – | bulk density (Bulk density test; hemihydrate): 0.85 g/mL; main particle size [2]: 110 μm; angle of repose ([4]; hemihydrate): 38 ° |
| NCCCC(=O)O [Embodiment 2, γ-aminobutyric acid hemihydrate] | did not easily absorb moisture and agglomerate | high bulk density | good flowability | – |
| NCCCC(=O)O [Embodiment 3, γ-aminobutyric acid hemihydrate] | did not easily absorb moisture and agglomerate | high bulk density | good flowability | – |
| NCCCC(=O)O [Embodiment 4, γ-aminobutyric acid hemihydrate] | did not easily absorb moisture and agglomerate | high bulk density | good flowability | – |
| NCCCC(=O)O [Embodiment 5, γ-aminobutyric acid hemihydrate] | did not easily absorb moisture and agglomerate | high bulk density | good flowability | – |
| NCCCC(=O)O [Embodiment 6, γ-aminobutyric acid hemihydrate] | did not easily absorb moisture and agglomerate | high bulk density | good flowability | – |
| NCCCC(=O)O [crude λ-aminobutyric acid raw material, γ-aminobutyric acid, reference compound] | – | – | – | bulk density (Bulk density test): 0.65 g/mL; angle of repose [4]: 50 ° |
